Entries after “also recorded” stand apart in the source; their conditions may differ.
Key:
[1] = tested on: Rats treated with scopolamine; assay: Morris water maze in scopolamine-induced memory impairment; type: in vivo, rat; settings: scopolamine 1 mg/kg sc, CR4056 20 mg/kg os, mean over four days
Description: FIG. 4 reports the results of the Morris Water Maze test in the model of scopolamine-induced memory loss. Rats treated with scopolamine (Sco, 1 mg/kg) or physiological solution (Sal) received CR4056 20 mg/kg/die or its vehicle (MC). Data represented the mean time spent to reach the hidden platform over four days. Two way ANOVA. Tukey Comparison test. ** P<0.01.
The Morris water maze test was used to evaluate cognitive function distinct in two phases: first, the acquisition and spatial localization of a hidden platform and, subsequently, the processing, consolidating, retaining and then retrieving the acquired information to successfully locate the platform to escape the water.
Place navigation required the rats to learn to swim from any starting position to the escape platform, thereby acquiring a long-term memory of the platform's spatial location. Animals were placed into various quadrants of the pool and the time elapsed and the distance traversed to reach the hidden platform was recorded. Various objects were placed in the testing room so that the animals used these visual cues as a means of navigating in the Maze. After repeated entry into the Maze, the animals became more and more efficient at locating the platform, thus escaping the water by learning the location of the platform relative to the distal visual cues. […]

[2] = tested on: Mice treated with scopolamine; assay: Novel object recognition in scopolamine-induced memory impairment; type: in vivo, mouse; settings: scopolamine 1 mg/kg ip, CR4056 6 and 20 mg/kg os
Description: FIG. 5 reports the results of Novel Object recognition test in the model of scopolamine-induced memory loss. Data presented as % of time spent on exploration of new and old object in testing phase. *p<0.05; **P<0.01; t student test (n=6).
The novel object recognition test was used to evaluate cognitive function based on the ability of mice to recognize various object proposed in the arena test. During the training phase a pair of identical objects were placed in the cage test. 24 hours after the first phase, during the testing phase one of the two object was replaced by a new different one. Time of exploration of each object was recorded in training and testing phase. The typical approach of mice was a similar exploration of the objects in training phase and a preference for the new object during the testing phase. The administration of substances that can worsen cognitive performance (i.e., scopolamine) caused the deletion of reminder of the old object and an equal exploration of 2 different objects. Scopolamine 1 mg/kg was administered ip 20 minutes before the training, whereas CR4056 6 and 20 mg/kg was administered os 40 minutes before the training.

[3] = tested on: Iba1-positive microglial cells; assay: Spinal microglia activation (Iba1 immunofluorescence) in CFA inflammatory model; type: in vivo, rat; settings: rats, 6 mg/kg os single administration 72 hours post-CFA, evaluated after 90 minutes
Description: FIG. 2 reports the results of spinal microglia activation at 72 hours following CFA injection. The quantification of microglia activation in ipsilateral L5 SC dorsal horn was determined as the number of Iba1-positive microglia, displaying a clearly swollen cell body with reduced processes, within the analyzed selected frame of the superficial laminae. Data represent the mean of 5 animals/group. Ordinary one way ANOVA followed by Dunnet's multiple comparison (**p<0.05).
Microglial cells activation was evaluated by immunofluorescence staining, measuring the expression of ionized calcium-binding adapter molecule 1 (Iba-1) in ipsilateral L5 spinal cord in complete Freund's adjuvant (CFA) model. […]
CR4056 (6 mg/kg, os) was administered 72 hours post-CFA and after 90 minutes animals were deeply anesthetized with an overdose of urethane (1.5 g·kg−1, i.p.) and then transcardially perfused with 250 mL 0.9% saline containing 1% heparin (5000 UI·mL−1), followed by 500 mL 10% formalin (i.e., 4% paraformaldehyde, Bio-Optica Spa, Milan, Italy). […] For each section, a representative image of both the ipsilateral and the contralateral dorsal horn (laminae I-III) of the L5 spinal cord was captured at 20× magnification, using consistent exposure times across all sections, and then analysed. […] For each animal (n=5 per group) 6 non-consecutive sections were analysed and results were averaged.

COX-2 = COX-2 gene expression in IL-1β-stimulated U373 MG astrocytoma cells (RT-PCR); type: cell-based, human; settings: IL-1β 2 ng/ml
Description: A model of astrocytes, the human glioblastoma astrocytoma cell line U373 MG (Uppsala), was used for these experiments. Adherent cells were grown in DMEM medium supplemented with 10% FBS at 37° C. with CO2. 72 hours after plating, cells were treated for 1 h with 2-phenyl-6-(1H-imidazol-1-yl)quinazoline (CR4056) (10 μM) prepared according to EP2066653 and then stimulated with the pro-inflammatory cytokine IL-1β (2 ng/mL) for further 6 and 24 h.
At the end of incubation period, total RNA was obtained and retro-transcribed using the High-Capacity cDNA Reverse Transcription Kit (Thermo Fisher Scientific). The levels of expression of COX-2, IL-1β, IL-6 and TNFα were evaluated by RT-PCR analysis, performed using the Applied Biosystems 7500 Fast Real-Time PCR System using specific TaqMan assays and, as an endogenous control, the 18S Pre-Developed TaqMan® Assay (Thermo Fisher Scientific). The data analysis, with normalisation on 18S amplified values, was according to Thermo Fisher Scientific specific instructions for gene expression relative quantification. All individual data were the result of at least three different measurements for each sample.
Percentage of gene expression inhibition observed in U373 cells stimulated with IL-1β 2 ng/ml and exposed to 10 μM CR4056 for the indicated time.

SMILES: c1ccc(-c2ncc3cc(-n4ccnc4)ccc3n2)cc1 [CR4056, 2-phenyl-6-(1H-imidazol-1-yl)quinazoline]
- Time to reach the hidden platform, Morris water maze [1]: significantly reduced the time taken to get to the platform
- Time of exploration of the new object in testing phase, novel object recognition [2]: increased the time of exploration of the new object
- Microglia activation in ipsilateral L5 spinal cord dorsal horn (Iba1-positive activated microglia) [3]: completely restored the basal conditions of microglia; also recorded: significantly reduced microglia activation
- Percentage of gene expression inhibition, COX-2 (COX-2; 10 μM CR4056, 6 h): 45%
- Percentage of gene expression inhibition, COX-2 (COX-2; 10 μM CR4056, 24 h): 48%

From patent US20240091227A1, “Use Of 2-Phenyl-6-(1H-Imidazol-1-YL) Quinazoline For Treating Neurodegenerative Diseases, Preferably Alzheimer's Disease” (ROTTAPHARM BIOTECH S.R.L., priority 2019, published 2024)
